# Measurements: patent publication US12409237B1, “Methods and models for assessing efficacy of immunotherapies” (The Jackson Laboratory, priority 2016, dated 2025)
# “Also recorded” adds a separate entry of the source.
# Test system: human BL0293 tumor cells (bladder cancer cells)
# Assay: Tumor growth of BL0293 patient-derived xenograft in NSG-Quad mice engrafted with human CD34+ hematopoietic stem cells
# Assay type: in vivo, mouse
# Conditions: NSG-Quad mice with human CD34+ HSC and BL0293 xenografts; intravenous 10 mg/kg on day 0, then 5 mg/kg on days 5, 10 and 15; versus vehicle; tumors 60-100 mm^3 at grouping
# Procedure: NSG-Quad mice were irradiated with 50 cGy whole body radiation. NSG-SGM3 mice were irradiated with 50 cGy whole body radiation and NSG mice were irradiated with 100 cGy whole body radiation as controls. Each mouse received about 100,000 human CD34^+ hematopoietic stem cells from the same donor by injection. Blood cells obtained by retro-orbital bleeding at 10 weeks post-engraftment were assessed by flow cytometry for mouse CD45, human CD45, human CD20, human CD3, human CD33, human CD14, and human CD56 (FIG. 1A-F). Live cells were gated using LIVE/DEAD® (ThermFisher Scientific).
# BR1126, MDA-MB-231, TM1149, and BL0293 tumor cells were separately implanted subcutaneously into NSG-Quad and NSG-SGM3 mice at 7-12 weeks post-CD34^+-cell engraftment (see Example 1). Tumor sizes were measured with calipers.
# NSG-Quad mice xenografted with human BL0293 tumor cells (bladder cancer cells) were grouped when tumors reached 60-100 mm^3, and mice were then administered intravenous pembrolizumab at 10 mg/kg on day 0 followed by 5 mg/kg on days 5, 10, and 15. Tumor sizes were measured by calipers.
# FIG. 5 is a graph depicting tumor volumes for NSG-Quad mice that have human CD34^+ hematopoietic stem cell xenografts and BL0293 patient-derived xenografts and receiving either pembrolizumab (Keytruda®) or vehicle. Each data point corresponds to a single mouse at a specific time-point. […]
substance,measurement,value
pembrolizumab,tumor growth (tumor volume measured by calipers),reduced tumor growth rates; also recorded: slower tumor growth on average
